From patent publication US11649246B2, “Salts of 4-amino-N-(l-((3-chloro-2-fluorophenyl)amino)-6-methylisoquinolin-5-yl)thieno[3,2-D]pyrimidine-7-carboxamide, and crystalline forms thereof” (Hanmi Pharm. Co., Ltd., priority 2017, dated 2023)

Experiment: Long-term stability at 20° C. to 30° C., 60% relative humidity, protection from light
Type: physicochemical
Settings: 60% RH
Experimental: The stability of crystalline Formula (I) bis-hydrochloride Form I was evaluated at 3 months, 6 months, 9 months, 12 months, 18 months and 24 under conditions of 20° C. to 30° C. at 60% relative humidity and protection from light. Stability criteria included the following. At each interval from 3 to 24 months the crystalline Formula (I) bis-hydrochloride Form I appeared as a pale brown to off-white powder. Identification was performed by IR, PXRD and HPLC methods as described elsewhere herein with results reported as pass/fail. Purity was determined by HPLC with known impurities at relative retention times (“RRT”) of 1.1, 1.7 and 2.1. The results are shown in Table 22 where “Init” refers to initial, “Iden” refers to identification, “Imp” refers to impurity, “A.U.I.” refers to any unspecified impurity, “T.U.I.” refers to total unspecified impurity, “T.I.” refers to total impurities, and “N.D.” refers to not detected. The PXRD results at initial, 6 months, 12 months and 24 months are depicted in FIG. 33.

Cc1ccc2c(Nc3cccc(Cl)c3F)nccc2c1NC(=O)c1csc2c(N)ncnc12 [Example 3, 4-amino-N-(1-((3-chloro-2-fluorophenyl)amino)-6-methylisoquinolin-5-yl)thieno[3,2-d]pyrimidine-7-carboxamide]
A.U.I. (any unspecified impurity) (3 mo): 0.03% | Identity HPLC (3 mo): pass | Imp 1 (3 mo): 0.02% | Imp RRT 1.7 (3 mo): 0.08% | Purity (3 mo): 99.8% | T.I. (total impurities) (3 mo): 0.15% | T.U.I (total unspecified impurity) (3 mo): 0.05% | A.U.I. (any unspecified impurity) (6 mo): 0.03% | Identity HPLC (6 mo): pass | Identity IR (6 mo): pass | Identity PXRD (6 mo): pass | Imp 1 (6 mo): 0.03% | Imp RRT 1.7 (6 mo): 0.08% | Purity (6 mo): 99.8% | T.I. (total impurities) (6 mo): 0.16% | T.U.I (total unspecified impurity) (6 mo): 0.05% | A.U.I. (any unspecified impurity) (9 mo): 0.03% | Identity HPLC (9 mo): pass | Imp 1 (9 mo): 0.02% | Imp RRT 1.7 (9 mo): 0.08% | Purity (9 mo): 99.8% | T.I. (total impurities) (9 mo): 0.16% | T.U.I (total unspecified impurity) (9 mo): 0.05% | A.U.I. (any unspecified impurity) (12 mo): 0.06% | Identity HPLC (12 mo): pass | Identity IR (12 mo): Pass | Identity PXRD (12 mo): Pass | Imp 1 (12 mo): 0.02% | Imp RRT 1.7 (12 mo): 0.02% | Purity (12 mo): 99.8% | T.I. (total impurities) (12 mo): 0.14% | T.U.I (total unspecified impurity) (12 mo): 0.09% | A.U.I. (any unspecified impurity) (18 mo): 0.06% | Identity HPLC (18 mo): pass | Imp 1 (18 mo): 0.02% | Imp RRT 1.7 (18 mo): 0.02% | Purity (18 mo): 99.9% | T.I. (total impurities) (18 mo): 0.13% | T.U.I (total unspecified impurity) (18 mo): 0.09% | A.U.I. (any unspecified impurity) (24 mo): 0.06% | Identity HPLC (24 mo): pass | Imp 1 (24 mo): 0.02% | Imp RRT 1.7 (24 mo): 0.02% | Purity (24 mo): 99.8% | T.I. (total impurities) (24 mo): 0.15% | T.U.I (total unspecified impurity) (24 mo): 0.11% | A.U.I. (any unspecified impurity) (Init): 0.04% | Identity HPLC (Init): pass | Identity IR (Init): pass | Identity PXRD (Init): pass | Imp 1 (Init): 0.01% | Imp RRT 1.7 (Init): 0.08% | Purity (Init): 99.9% | T.I. (total impurities) (Init): 0.14% | T.U.I (total unspecified impurity) (Init): 0.05%
